{"source": "patent US8034838B2", "about": "“Composition and method for the treatment of neurological disorders” (priority 2008, dated 2011)", "origin": "cited, not measured here", "key": {"β-secretase": {"biological_target": "β-secretase (Homo sapiens, UniProt P56817)", "sequence (P56817 46-501)": "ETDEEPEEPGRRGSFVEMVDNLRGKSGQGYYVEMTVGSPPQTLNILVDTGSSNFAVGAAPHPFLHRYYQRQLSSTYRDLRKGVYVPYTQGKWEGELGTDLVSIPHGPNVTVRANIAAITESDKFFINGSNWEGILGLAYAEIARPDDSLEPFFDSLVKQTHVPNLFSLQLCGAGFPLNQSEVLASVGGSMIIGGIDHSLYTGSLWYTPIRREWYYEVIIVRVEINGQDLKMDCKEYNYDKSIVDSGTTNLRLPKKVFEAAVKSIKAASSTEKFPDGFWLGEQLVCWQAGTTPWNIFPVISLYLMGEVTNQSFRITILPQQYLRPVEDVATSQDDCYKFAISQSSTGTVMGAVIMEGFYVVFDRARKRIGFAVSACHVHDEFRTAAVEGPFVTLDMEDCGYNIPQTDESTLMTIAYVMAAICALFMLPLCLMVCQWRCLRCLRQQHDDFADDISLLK"}, "[1]": {"conditions": "after administration"}}}
{"smiles": "O=c1c(O)c(-c2cc(O)c(O)c(O)c2)oc2cc(O)cc(O)c12", "note": "[myricetin, Myricetin]", "values": [{"measurement": "regulation of α-secretase", "setting": "α-secretase", "value": "up-regulates"}, {"measurement": "regulation of γ-secretase", "setting": "γ-secretase", "value": "down-regulates"}, {"measurement": "regulation of β-secretase", "setting": "β-secretase", "value": "down-regulates"}, {"measurement": "time to cross the blood brain barrier", "setting": "[1]", "value": "≤ 30", "unit": "min"}]}
